Source: PMC4623321 (Clinical genitourinary cancer, 2013)
Marks after values point to notes of the source that are not given here.

Legend:
[1] = Pharmacokinetic assessments in patient plasma; assay type: in vivo, human
[2] = system: S6 ribosomal protein phosphorylation (Ser235/236) in PBMCs; assay: PBMC phospho/total S6RP analysis; assay type: in vivo, human; conditions: PBMCs of patients, baseline to 1 month of treatment (with vatalanib)
[3] = system: patients with advanced solid tumors; conditions: oral
solid tumors = conditions: cited from earlier work
[4] = everolimus with vatalanib, day 29, mean ± SD
[5] = vatalanib after everolimus started, day 29, mean ± SD
[6] = vatalanib alone, day 14, mean ± SD

CO[C@H]1C[C@@H]2CC[C@@H](C)[C@@](O)(O2)C(=O)C(=O)N2CCCC[C@H]2C(=O)O[C@H]([C@H](C)C[C@@H]2CC[C@@H](OCCO)[C@H](OC)C2)CC(=O)[C@H](C)/C=C(\C)[C@@H](O)[C@@H](OC)C(=O)[C@H](C)C[C@H](C)/C=C/C=C/C=C/1C [Everolimus]
CLss/F [1, 4]: 14.3 ± 3.7 L/h
Cssavg [1, 4]: 15.7 ± 4.9 ng/mL
Cssmax [1, 4]: 48.5 ± 14.8 ng/mL
Time of peak of mean plasma concentration ([1]; everolimus, cycle 1 day 29, mean concentration-time curve (Fig. 3B)): 2 h
Vd/F ([1]; human, plasma, oral): 216 ± 74 L
AUC ([1]; human, plasma, oral, everolimus with vatalanib, day 29, 24-hour dosing interval, mean ± SD): 377 ± 117 ng·h/mL
half-life ([1]; human, plasma, oral, t1/2, everolimus with vatalanib, day 29, mean ± SD): 14 ± 2.5 h
Tmax ([1]; human, plasma, oral, tmax, everolimus with vatalanib, day 29, median (range)): 1.31 h
Mean change in phospho/total ratio of S6RP [2]: no mean change
Maximum tolerated dose (MTD) of everolimus in the combination ([3]; combined with vatalanib 1000 mg daily): 5 mg daily

Clc1ccc(Nc2nnc(Cc3ccncc3)c3ccccc23)cc1 [Vatalanib]
Effect of adding everolimus on systemic exposure of vatalanib (AUC) ([1]; day 14 vs day 29): not significantly affected
Effect of everolimus on the PK parameters of vatalanib (maximum or steady-state plasma concentrations) ([1]; day 14 vs day 29): no substantial effect
Vd/F ([1]; human, plasma, oral): 488 ± 481 L
AUC ([1]; human, plasma, oral, vatalanib after everolimus started, day 29, 24-hour dosing interval, mean ± SD): 21600 ng·h/mL
AUC ([1]; human, plasma, oral, vatalanib alone, day 14, 24-hour dosing interval, mean ± SD): 26400 ng·h/mL
half-life ([1]; human, plasma, oral, t1/2, vatalanib after everolimus started, day 29, mean ± SD): 5.7 h
half-life ([1]; human, plasma, oral, t1/2, vatalanib alone, day 14, steady state, plasma, mean ± SD): 6.3 h
Tmax ([1]; human, plasma, oral, tmax, vatalanib after everolimus started, day 29, median (range)): 2 h
Tmax ([1]; human, plasma, oral, tmax, vatalanib alone, day 14, median (range)): 2 h
Cssavg [1, 5]: 901 ± 403 ng/mL
Cssmax [1, 5]: 3963 ± 1861 ng/mL
t1/2 [1, 5]: 5.71 ± 3.06 h
Tmax ([1]; vatalanib after everolimus started, day 29, median (range)): 2.08 (1.00-4.08) ^a h
Cssavg [1, 6]: 1099 ± 551 ng/mL
Cssmax [1, 6]: 4825 ± 2910 ng/mL
t1/2 ([1]; vatalanib alone, day 14, steady state, plasma, mean ± SD): 6.32 ± 4.46 h
Maximum tolerated dose (MTD) of vatalanib in the combination ([3]; combined with everolimus 5 mg daily): 1000 mg daily
Daily dose with radiographic evidence of a decrease in tumor blood flow (solid tumors; several clinical trials): ≥ 1000 mg
Tolerable dosing (solid tumors; single agent, clinical trials): ≤ 2000 mg daily
